Data: PubChem BioAssay AID1963832 (Molecular Pharmacology Branch, DTP, NCI, 2024)

System: 885724-159-R-J1-PDC complex spheroid viability
Assay: Anticancer human tumor 885724-159-R-J1-PDC patient-derived pancreatic adenocarcinoma cell line growth inhibition [POLQ]
Settings: for IC50: curve of first compound; for viability, T/C: stronger effect = lower value
Procedure, shortened: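 Growth inhibition in 3D: complex spheroids (tumor PDC, HUVEC, MSC) treated with POLQ inhibitor combinations; where Cmax unknown, highest tested concentration 10 microM, except SN-38 at 1 microM.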

[1] = second compound 0.0316 µM, first compound 0.0316 µM
[2] = second compound 0.0316 µM, first compound 0.1 µM
[3] = second compound 0.0316 µM, first compound 0.316 µM
[4] = second compound 0.0316 µM, first compound 1 µM
[5] = second compound 0.0316 µM, first compound 3.16 µM
[6] = second compound 0.0316 µM, first compound 10 µM
[7] = second compound 0.1 µM, first compound 0.0316 µM
[8] = second compound 0.1 µM, first compound 0.1 µM
[9] = second compound 0.1 µM, first compound 0.316 µM
[10] = second compound 0.1 µM, first compound 1 µM
[11] = second compound 0.1 µM, first compound 3.16 µM
[12] = second compound 0.1 µM, first compound 10 µM
[13] = second compound 0.316 µM, first compound 0.0316 µM
[14] = second compound 0.316 µM, first compound 0.1 µM
[15] = second compound 0.316 µM, first compound 0.316 µM
[16] = second compound 0.316 µM, first compound 1 µM
[17] = second compound 0.316 µM, first compound 3.16 µM
[18] = second compound 0.316 µM, first compound 10 µM
[19] = second compound 1 µM, first compound 0.0316 µM
[20] = second compound 1 µM, first compound 0.1 µM
[21] = second compound 1 µM, first compound 0.316 µM
[22] = second compound 1 µM, first compound 1 µM
[23] = second compound 1 µM, first compound 3.16 µM
[24] = second compound 1 µM, first compound 10 µM
[25] = second compound 3.16 µM, first compound 0.0316 µM
[26] = second compound 3.16 µM, first compound 0.1 µM
[27] = second compound 3.16 µM, first compound 0.316 µM
[28] = second compound 3.16 µM, first compound 1 µM
[29] = second compound 3.16 µM, first compound 3.16 µM
[30] = second compound 3.16 µM, first compound 10 µM
[31] = second compound 10 µM, first compound 0.0316 µM
[32] = second compound 10 µM, first compound 0.1 µM
[33] = second compound 10 µM, first compound 0.316 µM
[34] = second compound 10 µM, first compound 1 µM
[35] = second compound 10 µM, first compound 3.16 µM
[36] = second compound 10 µM, first compound 10 µM
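Also: spheroids exposed to compounds for 7 days.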

Question: How did the IC50 (second compound 0.0316 µM) turn out when CCc1cc2c(N3CCc4c(cc(Cn5ccnc5)cc4-c4cn(C)nc4C(F)(F)F)C3=O)cc(C)nc2c(OC)n1 + Cc1cccc(N(C)C(=O)C2C(O)CCN2c2nc(C)cc(C(F)(F)F)c2C#N)c1 was run?
Answer: > 10 µM

Question: And the IC50 (second compound 0.1 µM)?
Answer: > 10 µM

Question: And the IC50 (second compound 0.316 µM)?
Answer: > 10 µM

Question: What about the IC50 (second compound 1 µM) of the same molecule?
Answer: > 10 µM

Question: And the IC50 (second compound 3.16 µM)?
Answer: > 10 µM

Question: And the IC50 (second compound 10 µM)?
Answer: > 10 µM

Question: And the viability, T/C [1]?
Answer: 86.5%

Question: And the viability, T/C [2]?
Answer: 82%

Question: And the viability, T/C [3]?
Answer: 84.8%

Question: And the viability, T/C [4]?
Answer: 75.2%

Question: What about the viability, T/C [5] of the same molecule?
Answer: 83.1%

Question: And the viability, T/C [6]?
Answer: 70.1%

Question: And the viability, T/C [7]?
Answer: 85.9%

Question: And the viability, T/C [8]?
Answer: 86.2%

Question: What about the viability, T/C [9] of the same molecule?
Answer: 84.6%

Question: And the viability, T/C [10]?
Answer: 81.7%

Question: And the viability, T/C [11]?
Answer: 78.5%

Question: What about the viability, T/C [12] of the same molecule?
Answer: 68.1%

Question: What about the viability, T/C [13] of the same molecule?
Answer: 89.1%

Question: And the viability, T/C [14]?
Answer: 83.5%

Question: And the viability, T/C [15]?
Answer: 84.3%

Question: And the viability, T/C [16]?
Answer: 83.9%

Question: What about the viability, T/C [17] of the same molecule?
Answer: 77.4%

Question: And the viability, T/C [18]?
Answer: 68.7%

Question: What about the viability, T/C [19] of the same molecule?
Answer: 93.5%

Question: What about the viability, T/C [20] of the same molecule?
Answer: 92.1%

Question: What about the viability, T/C [21] of the same molecule?
Answer: 86%

Question: And the viability, T/C [22]?
Answer: 79.2%

Question: What about the viability, T/C [23] of the same molecule?
Answer: 76.1%

Question: And the viability, T/C [24]?
Answer: 68%

Question: What about the viability, T/C [25] of the same molecule?
Answer: 93.2%

Question: And the viability, T/C [26]?
Answer: 84.9%

Question: What about the viability, T/C [27] of the same molecule?
Answer: 88.2%

Question: What about the viability, T/C [28] of the same molecule?
Answer: 84.5%

Question: What about the viability, T/C [29] of the same molecule?
Answer: 72.9%

Question: What about the viability, T/C [30] of the same molecule?
Answer: 75.4%

Question: And the viability, T/C [31]?
Answer: 83.9%

Question: What about the viability, T/C [32] of the same molecule?
Answer: 91%

Question: What about the viability, T/C [33] of the same molecule?
Answer: 87.5%

Question: And the viability, T/C [34]?
Answer: 81.6%

Question: And the viability, T/C [35]?
Answer: 75.8%

Question: And the viability, T/C [36]?
Answer: 71%

Question: With CCc1cc2c(N3CCc4c(cc(Cn5ccnc5)cc4-c4cn(C)nc4C(F)(F)F)C3=O)cc(C)nc2c(OC)n1 + Nc1ccc(C#CCN(C(=O)Cc2ncc(C(F)(F)F)cc2C(F)(F)F)c2ccc(F)cc2)nn1 as the molecule, how does the IC50 (second compound 0.0316 µM) read?
Answer: > 10 µM

Question: And the IC50 (second compound 0.1 µM)?
Answer: > 10 µM

Question: What about the IC50 (second compound 0.316 µM) of the same molecule?
Answer: > 10 µM

Question: And the IC50 (second compound 1 µM)?
Answer: > 10 µM

Question: And the IC50 (second compound 3.16 µM)?
Answer: > 10 µM

Question: What about the IC50 (second compound 10 µM) of the same molecule?
Answer: > 10 µM

Question: And the viability, T/C [1]?
Answer: 84.1%

Question: What about the viability, T/C [2] of the same molecule?
Answer: 82.4%

Question: And the viability, T/C [3]?
Answer: 79.4%

Question: And the viability, T/C [4]?
Answer: 79.3%

Question: What about the viability, T/C [5] of the same molecule?
Answer: 75.8%

Question: What about the viability, T/C [6] of the same molecule?
Answer: 69.2%

Question: What about the viability, T/C [7] of the same molecule?
Answer: 91.8%

Question: What about the viability, T/C [8] of the same molecule?
Answer: 87.3%

Question: And the viability, T/C [9]?
Answer: 75.8%

Question: And the viability, T/C [10]?
Answer: 77.1%

Question: What about the viability, T/C [11] of the same molecule?
Answer: 70.9%

Question: What about the viability, T/C [12] of the same molecule?
Answer: 60.3%

Question: And the viability, T/C [13]?
Answer: 86.7%

Question: And the viability, T/C [14]?
Answer: 84.8%

Question: And the viability, T/C [15]?
Answer: 82.2%

Question: What about the viability, T/C [16] of the same molecule?
Answer: 85.2%

Question: What about the viability, T/C [17] of the same molecule?
Answer: 69.5%

Question: And the viability, T/C [18]?
Answer: 69.7%

Question: What about the viability, T/C [19] of the same molecule?
Answer: 89%

Question: And the viability, T/C [20]?
Answer: 90.9%

Question: And the viability, T/C [21]?
Answer: 78.3%

Question: And the viability, T/C [22]?
Answer: 71.8%

Question: And the viability, T/C [23]?
Answer: 73.1%

Question: What about the viability, T/C [24] of the same molecule?
Answer: 67.2%

Question: And the viability, T/C [25]?
Answer: 79.3%

Question: What about the viability, T/C [26] of the same molecule?
Answer: 72%

Question: What about the viability, T/C [27] of the same molecule?
Answer: 78.3%

Question: What about the viability, T/C [28] of the same molecule?
Answer: 85.4%

Question: What about the viability, T/C [29] of the same molecule?
Answer: 75.2%

Question: And the viability, T/C [30]?
Answer: 69.8%

Question: And the viability, T/C [31]?
Answer: 88%

Question: And the viability, T/C [32]?
Answer: 88%

Question: What about the viability, T/C [33] of the same molecule?
Answer: 85.2%

Question: And the viability, T/C [34]?
Answer: 76.8%

Question: What about the viability, T/C [35] of the same molecule?
Answer: 89.9%

Question: And the viability, T/C [36]?
Answer: 73%

Question: For C=CC(=O)N1CCN(c2nc(=O)n(-c3c(C)ccnc3C(C)C)c3nc(-c4c(O)cccc4F)c(F)cc23)C(C)C1 (stereo unspecified) + Nc1ccc(C#CCN(C(=O)Cc2ncc(C(F)(F)F)cc2C(F)(F)F)c2ccc(F)cc2)nn1, which IC50 (second compound 0.0316 µM) is on record?
Answer: > 10 µM

Question: What about the IC50 (second compound 0.1 µM) of the same molecule?
Answer: > 10 µM

Question: What about the IC50 (second compound 0.316 µM) of the same molecule?
Answer: > 10 µM

Question: And the IC50 (second compound 1 µM)?
Answer: > 10 µM

Question: And the IC50 (second compound 3.16 µM)?
Answer: > 10 µM

Question: What about the IC50 (second compound 10 µM) of the same molecule?
Answer: > 10 µM

Question: What about the viability, T/C [1] of the same molecule?
Answer: 96.3%

Question: And the viability, T/C [2]?
Answer: 86%

Question: What about the viability, T/C [3] of the same molecule?
Answer: 101%

Question: And the viability, T/C [4]?
Answer: 106%

Question: What about the viability, T/C [5] of the same molecule?
Answer: 103%

Question: What about the viability, T/C [6] of the same molecule?
Answer: 98.6%

Question: What about the viability, T/C [7] of the same molecule?
Answer: 108%

Question: What about the viability, T/C [8] of the same molecule?
Answer: 112%

Question: And the viability, T/C [9]?
Answer: 110%

Question: What about the viability, T/C [10] of the same molecule?
Answer: 102%

Question: What about the viability, T/C [11] of the same molecule?
Answer: 122%

Question: What about the viability, T/C [12] of the same molecule?
Answer: 94%

Question: What about the viability, T/C [13] of the same molecule?
Answer: 96.5%

Question: What about the viability, T/C [14] of the same molecule?
Answer: 102%

Question: What about the viability, T/C [15] of the same molecule?
Answer: 105%

Question: What about the viability, T/C [16] of the same molecule?
Answer: 102%

Question: What about the viability, T/C [17] of the same molecule?
Answer: 110%

Question: What about the viability, T/C [18] of the same molecule?
Answer: 90.4%

Question: And the viability, T/C [19]?
Answer: 96.4%

Question: What about the viability, T/C [20] of the same molecule?
Answer: 87.5%

Question: What about the viability, T/C [21] of the same molecule?
Answer: 93.2%

Question: And the viability, T/C [22]?
Answer: 109%

Question: What about the viability, T/C [23] of the same molecule?
Answer: 110%

Question: And the viability, T/C [24]?
Answer: 97.3%

Question: What about the viability, T/C [25] of the same molecule?
Answer: 96.9%

Question: What about the viability, T/C [26] of the same molecule?
Answer: 92.9%

Question: And the viability, T/C [27]?
Answer: 98.4%

Question: And the viability, T/C [28]?
Answer: 100%

Question: What about the viability, T/C [29] of the same molecule?
Answer: 117%

Question: And the viability, T/C [30]?
Answer: 83.6%

Question: What about the viability, T/C [31] of the same molecule?
Answer: 95.7%

Question: And the viability, T/C [32]?
Answer: 104%

Question: And the viability, T/C [33]?
Answer: 98.6%

Question: What about the viability, T/C [34] of the same molecule?
Answer: 111%

Question: And the viability, T/C [35]?
Answer: 97.5%

Question: What about the viability, T/C [36] of the same molecule?
Answer: 91.1%
